Three molecules from paper PMC3710292 (Cellular and molecular life sciences : CMLS, 2013) can be followed below.

Broadly, the IC50 is the point on the concentration scale where inhibition reaches its midpoint. Lower therefore signals greater potency. By % inhibition is commonly meant the share of the control response that was lost under treatment. Read a high % inhibition as a response far below the control.

Format in all cases: cell-based
Assay [1] addresses human TRPM7 (Homo sapiens, UniProt Q96QT4). Kind of assay: whole-cell patch clamp, current at +[…] mV. In general terms: In patch-clamp work, channel activity is measured electrically.
Assay [2] addresses human TRPM6 (hTRPM6) (Homo sapiens, UniProt Q9BX84). Kind of assay: whole-cell patch clamp, current at +[…] mV, […] s. The settings on record: intracellular iodide 154 mM; no intracellular Mg2+; pH 7.2.
The target in assay [3] is TRPM7 Δ-kinase (Homo sapiens, UniProt Q96QT4). Kind of assay: whole-cell patch clamp, current at +[…] mV.

SMILES strings stand for the structures.

human TRPM7, sequence (Q96QT4 whole entry): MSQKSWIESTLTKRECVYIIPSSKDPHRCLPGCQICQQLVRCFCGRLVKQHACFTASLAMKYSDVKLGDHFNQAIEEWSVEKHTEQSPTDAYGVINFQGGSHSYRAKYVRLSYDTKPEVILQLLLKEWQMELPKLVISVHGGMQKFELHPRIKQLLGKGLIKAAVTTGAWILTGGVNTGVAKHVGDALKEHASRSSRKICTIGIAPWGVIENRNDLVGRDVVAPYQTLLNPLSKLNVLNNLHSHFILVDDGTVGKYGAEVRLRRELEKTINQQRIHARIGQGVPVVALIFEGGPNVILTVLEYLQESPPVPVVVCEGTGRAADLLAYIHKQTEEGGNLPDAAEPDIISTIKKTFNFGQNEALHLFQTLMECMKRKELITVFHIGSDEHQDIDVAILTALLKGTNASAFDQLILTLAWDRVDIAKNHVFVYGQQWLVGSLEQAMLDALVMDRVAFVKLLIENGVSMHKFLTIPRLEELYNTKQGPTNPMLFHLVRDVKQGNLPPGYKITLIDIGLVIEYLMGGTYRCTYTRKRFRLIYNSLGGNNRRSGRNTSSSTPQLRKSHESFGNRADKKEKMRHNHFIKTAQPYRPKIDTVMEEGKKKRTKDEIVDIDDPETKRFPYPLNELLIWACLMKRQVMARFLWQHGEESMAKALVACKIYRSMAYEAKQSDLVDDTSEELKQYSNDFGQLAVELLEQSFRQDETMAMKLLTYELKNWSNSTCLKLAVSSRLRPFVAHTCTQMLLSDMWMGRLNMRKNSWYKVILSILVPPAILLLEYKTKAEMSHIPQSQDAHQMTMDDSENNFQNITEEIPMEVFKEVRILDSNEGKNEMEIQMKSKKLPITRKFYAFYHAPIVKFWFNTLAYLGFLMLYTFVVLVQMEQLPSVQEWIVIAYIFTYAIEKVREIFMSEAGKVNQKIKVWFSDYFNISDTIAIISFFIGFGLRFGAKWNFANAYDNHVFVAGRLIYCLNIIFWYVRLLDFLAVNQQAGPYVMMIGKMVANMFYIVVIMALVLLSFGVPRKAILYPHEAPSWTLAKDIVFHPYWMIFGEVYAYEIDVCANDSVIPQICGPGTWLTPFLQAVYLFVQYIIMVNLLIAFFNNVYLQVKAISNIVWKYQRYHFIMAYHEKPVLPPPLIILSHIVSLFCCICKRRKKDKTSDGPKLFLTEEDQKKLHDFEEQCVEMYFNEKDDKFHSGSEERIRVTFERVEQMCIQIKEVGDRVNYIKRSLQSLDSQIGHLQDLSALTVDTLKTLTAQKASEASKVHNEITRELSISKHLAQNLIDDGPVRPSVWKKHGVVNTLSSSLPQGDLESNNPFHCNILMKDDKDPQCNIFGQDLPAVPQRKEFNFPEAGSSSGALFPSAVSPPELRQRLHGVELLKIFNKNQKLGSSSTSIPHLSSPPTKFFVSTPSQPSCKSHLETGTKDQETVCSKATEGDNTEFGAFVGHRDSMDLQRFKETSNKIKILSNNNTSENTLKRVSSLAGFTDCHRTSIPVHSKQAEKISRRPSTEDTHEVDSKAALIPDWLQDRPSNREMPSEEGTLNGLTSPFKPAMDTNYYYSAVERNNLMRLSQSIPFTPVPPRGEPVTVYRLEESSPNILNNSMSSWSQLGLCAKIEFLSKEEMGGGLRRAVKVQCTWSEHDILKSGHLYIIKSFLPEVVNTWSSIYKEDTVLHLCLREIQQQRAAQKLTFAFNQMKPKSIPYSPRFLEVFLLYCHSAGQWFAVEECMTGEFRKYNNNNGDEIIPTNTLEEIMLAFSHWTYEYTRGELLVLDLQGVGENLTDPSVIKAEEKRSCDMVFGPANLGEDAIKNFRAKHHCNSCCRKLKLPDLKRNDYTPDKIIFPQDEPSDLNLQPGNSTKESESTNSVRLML
TRPM7 Δ-kinase, sequence (Q96QT4 1-1569, stated change not applied): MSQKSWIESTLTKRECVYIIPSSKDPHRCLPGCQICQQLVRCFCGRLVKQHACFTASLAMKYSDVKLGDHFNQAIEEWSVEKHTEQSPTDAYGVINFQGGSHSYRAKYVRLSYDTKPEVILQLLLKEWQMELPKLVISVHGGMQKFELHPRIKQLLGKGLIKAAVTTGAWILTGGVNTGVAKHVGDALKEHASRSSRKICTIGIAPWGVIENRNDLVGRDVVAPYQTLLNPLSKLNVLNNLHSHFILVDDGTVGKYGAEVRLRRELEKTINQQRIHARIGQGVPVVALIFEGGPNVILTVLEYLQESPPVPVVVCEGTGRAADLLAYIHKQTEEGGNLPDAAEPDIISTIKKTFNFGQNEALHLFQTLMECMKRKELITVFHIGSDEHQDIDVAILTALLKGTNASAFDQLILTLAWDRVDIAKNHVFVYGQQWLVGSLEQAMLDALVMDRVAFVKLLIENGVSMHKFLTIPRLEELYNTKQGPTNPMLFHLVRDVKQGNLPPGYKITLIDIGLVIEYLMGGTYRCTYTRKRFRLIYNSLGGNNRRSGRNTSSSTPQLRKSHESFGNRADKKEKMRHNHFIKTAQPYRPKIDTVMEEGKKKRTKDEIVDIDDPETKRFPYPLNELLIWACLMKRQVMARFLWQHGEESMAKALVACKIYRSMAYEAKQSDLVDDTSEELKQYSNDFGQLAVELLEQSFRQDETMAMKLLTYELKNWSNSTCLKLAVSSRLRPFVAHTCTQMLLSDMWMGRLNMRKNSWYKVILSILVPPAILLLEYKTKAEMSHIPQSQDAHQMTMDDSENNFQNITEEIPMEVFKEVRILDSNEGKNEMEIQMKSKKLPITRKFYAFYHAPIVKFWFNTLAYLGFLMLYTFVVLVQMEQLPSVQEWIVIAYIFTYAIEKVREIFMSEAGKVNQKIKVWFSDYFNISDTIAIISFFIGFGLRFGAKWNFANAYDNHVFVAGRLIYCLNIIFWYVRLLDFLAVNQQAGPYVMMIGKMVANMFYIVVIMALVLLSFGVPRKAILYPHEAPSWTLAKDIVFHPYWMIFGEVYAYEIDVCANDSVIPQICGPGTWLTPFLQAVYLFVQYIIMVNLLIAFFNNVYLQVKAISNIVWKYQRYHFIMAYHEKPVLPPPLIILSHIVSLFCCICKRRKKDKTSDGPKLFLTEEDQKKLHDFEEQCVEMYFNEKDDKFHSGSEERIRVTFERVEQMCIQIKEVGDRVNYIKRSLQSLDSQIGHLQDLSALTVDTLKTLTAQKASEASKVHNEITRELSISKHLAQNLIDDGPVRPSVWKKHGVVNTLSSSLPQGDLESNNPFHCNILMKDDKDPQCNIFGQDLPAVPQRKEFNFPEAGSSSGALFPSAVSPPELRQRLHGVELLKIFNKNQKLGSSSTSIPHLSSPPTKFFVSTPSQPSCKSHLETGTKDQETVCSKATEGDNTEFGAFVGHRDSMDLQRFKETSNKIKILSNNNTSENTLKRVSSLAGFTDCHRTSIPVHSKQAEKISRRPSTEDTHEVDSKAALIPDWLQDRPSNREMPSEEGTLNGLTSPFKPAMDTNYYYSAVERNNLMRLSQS

`Br` [bromide] had an IC50 in assay [1] of 88 ± 6 mM. For the molecule `Cl` [chloride], the concentration for half-maximal inhibition (IC50) in assay [1] worked out at 99 ± 9 mM. Consider `I` [iodide], for which the “% inhibition at 154 mM” value in assay [2] came out at 52%. Besides, 31 ± 3 mM corresponded to half-maximal inhibition in assay [3] (IC50).
